In test [1] the target is Mammalian GSK-3 (GSK-3α/β). Nature of the test: Kinase assay with native porcine GSK3 purified from porcine brain, GS-1 peptide and [γ-33P] ATP. The format is biochemical. The conditions noted are these: for anti-mammalian GSK-3 IC50 values: result in words; for IC50: -(10) taken as no inhibition at 10, read-out: IC50 Mammalian GSK-3. The procedure:
Porcine GSK3 (GSK-3α/β) was purified from porcine brain by affinity chromatography on immobilized axin according to the protocol described in Primot et al (Protein Expression and Purification 20, 394-404, 2000).
(§1) Both porcine GSK3 and PfGSK3 were assayed with 40 µM GS-1 peptide, a specific GSK-3 substrate, ([…]pEDEEE, synthesized by the Peptide Synthesis Unit, Institute of Biomolecular Sciences, University of Southampton, U.K.), in buffer A (25 mM Tris-HCl pH 7.5, 10 mM MgC12, 1 mM EGTA, 1 mM DTT, 50 µg heparin/ml, 0.5 mg BSA/ml) in the presence of 15 µM [γ-^33P] ATP (3000 Ci/mmol; 1 mCi/ml) in a final volume of 30 µl. After 30 min. incubation at 30°C, 25 µl aliquots of supernatant were spotted onto 2.5 x 3 cm pieces of Whatman P81 phosphocellulose paper, and, 20 sec. later, the filters were washed five times (for at least 5 min. each time) in 1 % phosphoric acid. The wet filters were counted in the presence of 1 ml ACS (Amersham) scintillation fluid. The kinase activity was expressed in pmoles phosphate incorporated in GS-1 or in percentage of the maximal activity.

Another test deals with T1, PfGSK-3 (Plasmodium falciparum, UniProt O77344).
T1 construct: His6; made in house; host or cells: Escherichia coli TOP 10
T1 sequence (O77344 1-440): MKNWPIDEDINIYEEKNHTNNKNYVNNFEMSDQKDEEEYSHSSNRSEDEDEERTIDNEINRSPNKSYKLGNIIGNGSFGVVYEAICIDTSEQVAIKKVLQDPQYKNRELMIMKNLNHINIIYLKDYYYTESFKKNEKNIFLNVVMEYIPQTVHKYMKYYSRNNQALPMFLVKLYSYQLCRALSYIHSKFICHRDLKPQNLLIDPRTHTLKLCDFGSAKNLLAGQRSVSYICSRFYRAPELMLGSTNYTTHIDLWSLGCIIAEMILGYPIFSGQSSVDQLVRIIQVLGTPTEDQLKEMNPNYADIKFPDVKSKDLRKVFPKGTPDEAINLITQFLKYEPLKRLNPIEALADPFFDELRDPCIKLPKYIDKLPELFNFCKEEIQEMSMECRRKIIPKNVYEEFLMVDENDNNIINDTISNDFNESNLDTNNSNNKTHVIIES
In words: Kinase assay with recombinant (His)6-tagged PfGSK3, GS-1 peptide and [γ-33P] ATP. Particulars: for anti-PfGSK-3 IC50 values: result in words; for IC50: unit only in the introducing sentence b99, not in the table, read-out: IC50 PfGSK-3. It is filed as biochemical. Here is the method:
Escherichia coli strain (TOP 10) containing a plasmid encoding PfGSK3 with six histidines (pBAD-Thio-TOPO, Invitrogen) were cultured into 500 ml of LB medium containing 100 µg/ml ampicillin, at 37°C, under shaking (250 rpm) until OD600 of 0.5 was reached. Expression was induced with 0.5 ml of 20% arabinose (0.02% final concentration). The culture was grown at 37°C with shaking for 4 hours. Cells were harvested by centrifugation at 9000 rpm for 10 min. The bacterial pellet was stored frozen at -80°C until further processing. For proteins extraction, pellet was resuspended in 10 ml of lysis buffer (50 mM NaH2PO4 pH 8.0, 300 mM NaCl, 10 mM imidazole) with the addition of protease inhibitors (complete EDTA-free, Roche) and lysozyme ([…] final). Cells were disrupted by sonication and the cell lysate was centrifuged at 24000 rpm for 30 min at 4°C. The recombinant PfGSK3 protein was purified by Immobilized Metal Affinity Chromatography according to a batch procedure on 1 ml of Nickel affinity resin (Ni-NTA agarose beads, Qiagen). Beads were washed four times with 10 ml of wash buffer (50 mM NaH2PO4 pH 8.0, 300 mM NaCl, 30 mM imidazole). Protein was eluted with one volume of elution buffer (50 mM NaH2PO4 pH 8.0, 300 mM NaCl, 250 mM imidazole, 10% glycerol).
as §1

SMILES strings stand for the structures.

For orientation: IC50 means the midpoint of a concentration-inhibition curve.

`COc1ccccc1-c1c(C#N)c(N)nc2sc(C(=O)c3cccc(Cl)c3)c(N)c12` [Compound 7, 3,6-diamino-2-(3-chlorobenzoyl)-4-(2-methoxyphenyl)thieno[2,3-b]pyridine-5-carbonitrile]: in test [1], the “anti-mammalian GSK-3 IC50 values” is “do not demonstrate good”. Besides, the “anti-PfGSK-3 IC50 values” on PfGSK-3 is on record as “particularly good”.

For the compound `COc1ccc(C(=O)c2sc3nc(N)c(C#N)c(-c4ccccc4I)c3c2N)cc1` [Compound 11, 3,6-diamino-4-(2-iodophenyl)-2-(4-methoxybenzoyl)thieno[2,3-b]pyridine-5-carbonitrile], in test [1], the IC50 was above 10000 nM and the “anti-mammalian GSK-3 IC50 values” is “do not demonstrate good”. Besides, at PfGSK-3, the “anti-PfGSK-3 IC50 values” is “particularly good” and the IC50 stood at 1700 nM.

In the case of `Cc1ccc(C(=O)c2sc3nc(N)c(C#N)c(-c4ccccc4I)c3c2N)cc1` [Compound 12, 3,6-diamino-4-(2-iodophenyl)-2-(4-methylbenzoyl)thieno[2,3-b]pyridine-5-carbonitrile], the “anti-mammalian GSK-3 IC50 values” in test [1] was “do not demonstrate good”. In addition, on PfGSK-3, the “anti-PfGSK-3 IC50 values” is “particularly good”.

Consider `N#Cc1c(N)nc2sc(C(=O)c3ccccc3)c(N)c2c1-c1ccccc1Br` [Compound 18, 3,6-diamino-2-benzoyl-4-(2-bromophenyl)thieno[2,3-b]pyridine-5-carbonitrile], for which the “anti-mammalian GSK-3 IC50 values” in test [1] is reported as “do not demonstrate good”. Moreover, the “anti-PfGSK-3 IC50 values” at PfGSK-3 is on record as “particularly good”.

In the case of `N#Cc1c(N)nc2sc(C(=O)c3ccc(Cl)c(Cl)c3)c(N)c2c1-c1ccccc1Br` [Compound 21, 3,6-diamino-4-(2-bromophenyl)-2-(3,4-dichlorobenzoyl)thieno[2,3-b]pyridine-5-carbonitrile], in test [1], the IC50 is above 10000 nM and the “anti-mammalian GSK-3 IC50 values” is “do not demonstrate good”. At PfGSK-3, the “anti-PfGSK-3 IC50 values” is reported as “particularly good” and the IC50 was found to be 3800 nM.

As for `N#Cc1c(N)nc2sc(C(=O)c3ccc(Cl)c(Cl)c3)c(N)c2c1-c1ccccc1Cl` [Compound 23, 3,6-diamino-4-(2-chlorophenyl)-2-(3,4-dichlorobenzoyl)thieno[2,3-b]pyridine-5-carbonitrile], the “anti-mammalian GSK-3 IC50 values” in test [1] is recorded as “do not demonstrate good”. Also, the “anti-PfGSK-3 IC50 values” at PfGSK-3 is listed as “particularly good”.

As for `COc1cccc(C(=O)c2sc3nc(N)c(C#N)c(-c4ccccc4Cl)c3c2N)c1` [Compound 24, 3,6-diamino-4-(2-chlorophenyl)-2-(3-methoxybenzoyl)thieno[2,3-b]pyridine-5-carbonitrile], in test [1], the “anti-mammalian GSK-3 IC50 values” is on record as “do not demonstrate good”. In addition, the “anti-PfGSK-3 IC50 values” at PfGSK-3 is “particularly good”.

`N#Cc1c(N)nc2sc(C(=O)c3cccc(C(F)(F)F)c3)c(N)c2c1-c1ccccc1Cl` [Compound 25, 3,6-diamino-4-(2-chlorophenyl)-2-[3-(trifluoromethyl)benzoyl]thieno[2,3-b]pyridine-5-carbonitrile]: in test [1], the “anti-mammalian GSK-3 IC50 values” is given as “do not demonstrate good”. In addition, on PfGSK-3, the “anti-PfGSK-3 IC50 values” is reported as “particularly good”.

For the compound `N#Cc1c(N)nc2sc(C(=O)c3cccc(Br)c3)c(N)c2c1-c1ccccc1Cl` [Compound 27, 3,6-diamino-2-(3-bromobenzoyl)-4-(2-chlorophenyl)thieno[2,3-b]pyridine-5-carbonitrile], the “anti-mammalian GSK-3 IC50 values” in test [1] is on record as “do not demonstrate good”. On PfGSK-3, the “anti-PfGSK-3 IC50 values” is “particularly good”.

On to `N#Cc1c(N)nc2sc(C(=O)c3cccc(Cl)c3)c(N)c2c1-c1c(Cl)cccc1Cl` [Compound 30, 3,6-diamino-2-(3-chlorobenzoyl)-4-(2,6-dichlorophenyl)thieno[2,3-b]pyridine-5-carbonitrile], for which the “anti-mammalian GSK-3 IC50 values” in test [1] is on record as “do not demonstrate good”. In addition, the “anti-PfGSK-3 IC50 values” on PfGSK-3 is “particularly good”.

Regarding `Cc1ccccc1-c1c(C#N)c(N)nc2sc(C#N)c(N)c12` [Compound 40, 3,6-diamino-4-(2-methylphenyl)thieno[2,3-b]pyridine-2,5-dicarbonitrile], the IC50 in test [1] is 2000 nM; on PfGSK-3, 510 nM.
